From patent US8324390B2, “Tetrazole-substituted anthranilamides as pesticides” (Bayer CropScience AG, priority 2008, dated 2012)
Where two headings read alike, the source gives them in different places.

What was measured:
[1] = system: larvae of the mustard beetle (Phaedon cochleariae); test: Phaedon test (PHAECO spray treatment); conditions: Phaedon cochleariae, in Brassica rapa, foliar, read-out: effect in % (beetle larvae killed)
[2] = system: caterpillars of the armyworm (Spodoptera frugiperda); test: Spodoptera frugiperda test (SPODFR spray treatment); format: in vivo; conditions: Spodoptera frugiperda, foliar, read-out: effect in % (caterpillars killed)
Text: Solvent: 78.0 parts by weight of acetone

[3] = log P determination by HPLC (EEC Directive 79/831 Annex V.A8); format: physicochemical
Procedure: The measurements were carried out using an Agilent 1100 LC system with a 50*4.6 Zorbax Eclipse C18 1.8 μm column (oven temperature 55° C., flow rate 2.0 ml/min).
The following mobile phases were used:
Mobile phase A: acetonitrile+1000 μl of formic acid/l
Mobile phase B: Millipore water+900 μl of formic acid/l

[4] = application rate 100 g/ha, maize leaf discs
[5] = reversed-phase HPLC, Zorbax Eclipse C18 column, determined by HPLC according to EEC Directive 79/831 Annex V.A8, read-out: log P
[6] = reversed-phase HPLC, Zorbax Eclipse C18 column, by HPLC according to EEC Directive 79/831 Annex V.A8, read-out: log P

Row | chromatographic logP [3, 5] | chromatographic logP [3, 6] | Compound | pest or weed control at 100 g/ha [1] [%] | pest or weed control at 100 g/ha [2, 4] [%] | pest or weed control at 100 g/ha ([2]; in Zea mays) [%] | chromatographic logP ([3]; log P)
1 | 2.94 | – | CNC(=O)c1cc(Cl)cc(C)c1NC(=O)c1cc(Cn2nnnc2C(F)(F)F)nn1-c1ccccc1F [Example 474] | ≥ 80 | ≥ 80 | – | –
2 | – | – | Cc1cc(Br)cc(C(=O)NC(C)C)c1NC(=O)c1cc(Cn2nnc(C(F)(F)C(F)(F)F)n2)nn1-c1ncccc1Cl [Example 146] | ≥ 80 | – | ≥ 80 | 3.95
3 | – | – | Cc1cc(C#N)cc(C(=O)NC(C)C)c1NC(=O)c1cc(Cn2nnnc2C(F)(F)C(F)(F)F)nn1-c1ncccc1Cl [Example 202] | ≥ 80 | – | ≥ 80 | 3.14
4 | – | 4.1 | Cc1cc(C#N)cc(C(=O)NC(C)(C)C)c1NC(=O)c1cc(Cn2nnc(C(F)(C(F)(F)F)C(F)(F)F)n2)nn1-c1ncccc1Cl [Example 371] | ≥ 80 | ≥ 80 | – | –
5 | – | – | CNC(=O)c1cc(Br)cc(C)c1NC(=O)c1cc(Cn2nnc(C(F)(F)F)n2)nn1-c1ncccc1Cl [Example 28] | ≥ 80 | – | ≥ 80 | 3.05
6 | – | 3.59 | Cc1cc(C#N)cc(C(=O)NC(C)(C)C)c1NC(=O)c1cc(Cn2nnc(C(F)(F)F)n2)nn1-c1ncccc1C(F)(F)F [Example 232] | ≥ 80 | ≥ 80 | – | –
7 | – | – | CNC(=O)c1cc(F)cc(C)c1NC(=O)c1cc(Cn2nnc(C(F)(F)C(F)(F)F)n2)nn1-c1ncccc1Cl [Example 147] | ≥ 80 | – | ≥ 80 | 3.09
8 | – | 3.76 | Cc1cc(Br)cc(C(=O)NC(C)C)c1NC(=O)c1cc(Cn2nnc(C(F)(F)F)n2)nn1-c1ncccc1C(F)(F)F [Example 249] | ≥ 80 | ≥ 80 | – | –
9 | – | – | CCNC(=O)c1cc(I)cc(C)c1NC(=O)c1cc(Cn2nnc(C(F)(C(F)(F)F)C(F)(F)F)n2)nn1-c1ncccc1Cl [Example 380] | ≥ 80 | – | ≥ 80 | 4.2
10 | 3.82 | – | CNC(=O)c1cc(C#N)cc(C)c1NC(=O)c1cc(Cn2nnc(C(F)(F)F)n2)nn1-c1ccc(OC(F)(F)F)cc1Cl [Example 531] | ≥ 80 | ≥ 80 | – | –
11 | – | 3.89 | O=C(NCC(F)F)c1cc(Cl)cc(Cl)c1NC(=O)c1cc(Cn2nnc(C(F)(C(F)(F)F)C(F)(F)F)n2)nn1-c1ncccc1Cl [Example 396] | ≥ 80 | ≥ 80 | – | –
12 | – | – | Cc1cc(F)cc(C(=O)NC(C)(C)C)c1NC(=O)c1cc(Cn2nnc(C(F)(F)F)n2)nn1-c1ncccc1Cl [Example 115] | ≥ 80 | – | ≥ 80 | 3.51
13 | – | – | Cc1cc(C#N)cc(C(=O)NC2CCC2)c1NC(=O)c1cc(Cn2nnc(C(F)(F)C(F)(F)F)n2)nn1-c1ncccc1Cl [Example 139] | ≥ 80 | – | ≥ 80 | 3.61
14 | – | – | Cc1cc(Cl)cc(C(=O)NC2CCC2)c1NC(=O)c1cc(Cn2nnc(C(F)F)n2)nn1-c1ncccc1Cl [Example 260] | ≥ 80 | – | ≥ 80 | 3.09
15 | – | – | Cc1cc(C#N)cc(C(=O)NC(C)C2CC2)c1NC(=O)c1cc(Cn2nnnc2C(F)(F)F)nn1-c1ncccc1Cl (stereo not drawn) [Example 185] | ≥ 80 | – | ≥ 80 | 3
16 | – | – | Cc1cc(I)cc(C(=O)NC(C)C)c1NC(=O)c1cc(Cn2nnc(C(F)(F)C(F)(F)F)n2)nn1-c1ncccc1Cl [Example 142] | ≥ 80 | – | ≥ 80 | 4.19
17 | – | – | Cc1cc(C#N)cc(C(=O)NC2CC2)c1NC(=O)c1cc(Cn2nnnc2C(F)F)nn1-c1ncccc1Cl [Example 468] | ≥ 80 | – | ≥ 80 | 2.12
18 | – | – | NC(=O)c1cc(Cl)cc(Cl)c1NC(=O)c1cc(Cn2nnc(C(F)(F)C(F)(F)F)n2)nn1-c1ncccc1Cl [Example 155] | ≥ 80 | – | ≥ 80 | 3.13
19 | – | – | CC(C)NC(=O)c1cc(Cl)cc(Cl)c1NC(=O)c1cc(Cn2nnc(C(F)(F)F)n2)nn1-c1ncccc1Cl [Example 61] | ≥ 80 | – | ≥ 80 | 3.41
20 | – | – | CNC(=O)c1cc(Br)cc(C)c1NC(=O)c1cc(Cn2nnc(C(F)(F)C(F)(F)F)n2)nn1-c1ncccc1Cl [Example 143] | ≥ 80 | – | ≥ 80 | 3.5

Row | chromatographic logP [3, 5] | chromatographic logP [3, 6] | Compound | pest or weed control at 100 g/ha [1] [%] | pest or weed control at 100 g/ha [2, 4] [%] | pest or weed control at 100 g/ha ([2]; in Zea mays) [%] | chromatographic logP ([3]; log P)
21 | 2.81 | – | CNC(=O)c1cc(C#N)cc(C)c1NC(=O)c1cc(Cn2nnc(C(F)(F)F)n2)nn1-c1ccccc1 [Example 431] | ≥ 80 | ≥ 80 | – | –
22 | 2.74 | – | Cc1cc(C#N)cc(C(=O)NC(C)C)c1NC(=O)c1cc(Cn2nnnc2C(F)(F)F)nn1-c1ncccc1Br [Example 482] | ≥ 80 | ≥ 80 | – | –
23 | – | 3.43 | CCNC(=O)c1cc(Cl)cc(C)c1NC(=O)c1cc(Cn2nnc(C(F)(F)F)n2)nn1-c1ncccc1C(F)(F)F [Example 237] | ≥ 80 | ≥ 80 | – | –
24 | – | – | CC(C)NC(=O)c1cc(Cl)cc(Cl)c1NC(=O)c1cc(Cn2nnnc2C(F)(F)C(F)(F)F)nn1-c1ncccc1Cl [Example 205] | ≥ 80 | – | ≥ 80 | 3.52
25 | – | – | Cc1cc(C#N)cc(C(=O)NCC(C)C)c1NC(=O)c1cc(Cn2nnc(C(F)(F)F)n2)nn1-c1ncccc1Cl [Example 38] | ≥ 80 | – | ≥ 80 | 3.37
26 | – | – | Cc1cc(I)cc(C(=O)NC2CC2)c1NC(=O)c1cc(Cn2nnc(C(F)(F)F)n2)nn1-c1ncccc1Cl [Example 69] | ≥ 80 | – | ≥ 80 | 3.46
27 | – | – | CC(C)(C)NC(=O)c1cc(Cl)cc(Cl)c1NC(=O)c1cc(Cn2nnnc2C(F)(F)C(F)(F)F)nn1-c1ncccc1Cl [Example 206] | ≥ 80 | – | ≥ 80 | 3.88
28 | – | – | Cc1cc(C#N)cc(C(=O)NCC2CC2)c1NC(=O)c1cc(Cn2nnc(C(F)(F)C(F)(F)F)n2)nn1-c1ncccc1Cl [Example 138] | ≥ 80 | – | ≥ 80 | 3.56
29 | – | – | CNC(=O)c1cc(Cl)cc(Cl)c1NC(=O)c1cc(Cn2nnnc2C(F)(F)F)nn1-c1ncccc1Cl [Example 184] | ≥ 80 | – | ≥ 80 | 2.63
30 | – | – | Cc1cc(Br)cc(C(=O)NCC2CC2)c1NC(=O)c1cc(Cn2nnc(C(F)(F)F)n2)nn1-c1ncccc1Cl [Example 47] | ≥ 80 | – | ≥ 80 | 3.88
31 | – | – | Cc1cc(I)cc(C(=O)NC(C)C2CC2)c1NC(=O)c1cc(Cn2nnc(C(F)(F)F)n2)nn1-c1ncccc1Cl (stereo not drawn) [Example 68] | ≥ 80 | – | ≥ 80 | 4.01
32 | – | 4.5 | Cc1cc(Cl)cc(C(=O)NC(C)C2CC2)c1NC(=O)c1cc(Cn2nnc(C(F)(C(F)(F)F)C(F)(F)F)n2)nn1-c1ncccc1Cl (stereo not drawn) [Example 366] | ≥ 80 | ≥ 80 | – | –
33 | – | 2.72 | Cc1cc(Cl)cc(C(=O)NCC#N)c1NC(=O)c1cc(Cn2nnc(C(F)(F)F)n2)nn1-c1ncccc1Br [Example 325] | ≥ 80 | ≥ 80 | – | –
34 | – | – | CNC(=O)c1cc(Cl)cc(C)c1NC(=O)c1cc(Cn2nnnc2C(F)(F)C(F)(F)F)nn1-c1ncccc1Cl [Example 198] | ≥ 80 | – | ≥ 80 | 3.1
35 | – | 3.4 | CNC(=O)c1cc(C#N)cc(C)c1NC(=O)c1cc(Cn2nnc(C(F)(F)F)n2)nn1-c1cccc(Cl)c1Cl [Example 327] | ≥ 80 | ≥ 80 | – | –
36 | – | 4.13 | Cc1cc(Br)cc(C(=O)NC(C)(C)C)c1NC(=O)c1cc(Cn2nnc(C(F)(F)F)n2)nn1-c1ncccc1C(F)(F)F [Example 245] | ≥ 80 | ≥ 80 | – | –
37 | – | – | N#CCNC(=O)c1cc(Cl)cc(Cl)c1NC(=O)c1cc(Cn2nnc(C(F)(C(F)(F)F)C(F)(F)F)n2)nn1-c1ncccc1Cl [Example 393] | ≥ 80 | – | ≥ 80 | 3.59
38 | – | – | CCC(C)NC(=O)c1cc(Cl)cc(C)c1NC(=O)c1cc(Cn2nnc(C(F)(F)F)n2)nn1-c1ncccc1Cl (stereo not drawn) [Example 36] | ≥ 80 | – | ≥ 80 | 3.74
39 | – | – | CC(C)NC(=O)c1cc(Cl)cc(Cl)c1NC(=O)c1cc(Cn2nnc(C(F)(C(F)(F)F)C(F)(F)F)n2)nn1-c1ncccc1Cl [Example 389] | ≥ 80 | – | ≥ 80 | 4.12
40 | – | – | Cc1cc(C#N)cc(C(=O)NCC(C)(C)CF)c1NC(=O)c1cc(Cn2nnc(C(F)(F)F)n2)nn1-c1ncccc1Cl [Example 116] | ≥ 80 | – | ≥ 80 | 3.35
